In US20260325533A1, “CDK INHIBITOR COMPOUNDS” (ALEKSIA THERAPEUTICS, INC., priority 2023, published 2026) one finds IC50 data, which are given here for 16 compounds.

Where two headings read alike, the source gives them in different places. Where only a bound is given, the exact number is not on record here.

Holding throughout (assay type): biochemical
One assay addresses CDK6/CCND1 (Homo sapiens, UniProt Q00534). The assay can be described thus: CDK6 homogeneous time-resolved fluorescence (HTRF) kinase assay. As to conditions: CDK6/CCND. In a few lines:
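1 nM enzyme, 1 mM ATP, 50 nM ULight-4E-BP1 (Thr37/46) peptide, 1% DMSO; 20 min compound preincubation, 60 min reaction, 23 °C. EDTA stop, 2 nM Eu-anti-phospho-4E-BP1 antibody 60 min. TR-FRET 665 nm (or 665/615 ratio); IC50 from 11-point half-log titration, top 10 μM.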
(In general: TR-FRET usually uses a lanthanide donor and a delayed reading to cut background.)

For a further assay, the target named is CDK2/CCNE1 (Homo sapiens, UniProt P24941). The assay can be described thus: CDK2 homogeneous time-resolved fluorescence (HTRF) kinase assay. Conditions: CDK2/CCNE. In outline:
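CDK2/CCNE1 (3 nM) preincubated 20 min at 23 °C with compound, then reacted 60 min at 23 °C with 1 mM ATP and 50 nM ULight-4E-BP1 (Thr37/46) peptide. Stopped with EDTA, phospho-peptide detected by Eu-anti-phospho antibody (665 nm or 665/615 ratio). IC50 from 11-point half-log titrations typically starting at 10 μM.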

For the next assay, the target named is CDK1/CCNB1 (Homo sapiens, UniProt P06493). The assay can be described thus: CDK1 homogeneous time-resolved fluorescence (HTRF) kinase assay. As to conditions: CDK1/CCNB. In outline:
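Read-out: TR-FRET (Eu anti-phospho-4E-BP1 Thr37/46 antibody, 2 nM; 665 nm or 665/615 ratio) after 60 min phosphorylation of 50 nM ULight-peptide by 0.5 nM CDK1/CCNB1 at 1 mM ATP, 23 °C. Compound preincubated 20 min with enzyme; 1% DMSO.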

Another assay deals with CDK4/CCND3 (Homo sapiens, UniProt P11802). The assay can be described thus: CDK4 homogeneous time-resolved fluorescence (HTRF) kinase assay. Conditions: CDK4/CCND. As to the method:
A CDK homogeneous time-resolved fluorescence (HTRF) assay was used to assess the potency of the compounds described herein.
To an untreated 384-well microtiter plate (ProxiPlate) was added 100 nL 100×test compound in DMSO and 5 μL 2×CDK enzyme in assay buffer (50 mM HEPES, 1 mM EGTA, 10 mM MgCl2, 0.01% Tween 20, 2 mM DTT). The plate was centrifuged at 800 RPM for 1 min then incubated for 20 min at 23 °C. 2.5 μL per well of 4×ATP and 2.5 μL 4×ULight™-eIF4E-binding protein 1 (Thr37/46) Peptide substrate were added to all wells. After addition, the plates were centrifuged at 800 RPM for 1 min. The plates were incubated at 23 °C for 60 min. 5 μL per well 4×EDTA solution were added to each well to stop the reaction. 5 μL 4×LANCE Ultra Europium-anti-phospho-eIF4E-binding protein 1 (Thr37/46) antibody were added to each well and the plate was centrifuged for 1 min at 800 RPM. The plate was incubated for 60 min at 23 °C. Fluorescence was read at 340 nm excitation and 665 nm emission on an EnVision 2105 fluorescence reader. The final concentrations of reagents in the activity assay were 1.5 nM CDK4/CCND3, 1 mM ATP, 50 nM ULight™-eIF4E-binding protein 1 (Thr37/46) Peptide substrate, 1% DMSO, 10 mM EDTA, and 2 nM LANCE Ultra Europium-anti-phospho-eIF4E-binding protein 1 (Thr37/46).
Dose-response titrations were conducted by using an 11-point, half-logarithmic serial dilution scheme typically starting at 10 μM. Signals were reported as fluorescence units at 665 nm or the ratio of fluorescence units at 665 nm/fluorescence units at 615 nm. Signals are referred to below as “Lance signals”.
Using this assay, the IC50 values of example compounds were determined. Table 3 illustrates the IC50 for various Example compounds of Formula IA. Table 4 illustrates the IC50 for various other Example compounds of Formula I. ND=not determined.

[1] abbreviates: >250 nM marked x, read-out: CDK6/CCND IC50 >250 nM.
Where [2] appears, read: 25-250 nM marked x, read-out: CDK2/CCNE IC50 25-250 nM.
[3] abbreviates: >250 nM marked x, read-out: CDK1/CCNB IC50 >250 nM.
Where [4] appears, read: >250 nM marked x, read-out: CDK4/CCND IC50 >250 nM.
[5] abbreviates: >250 nM marked x, read-out: CDK2/CCNE IC50 >250 nM.
The mark [6] stands for this setting: 25-250 nM marked x, read-out: CDK6/CCND IC50 25-250 nM.

Chain of CDK1/CCNB1 (P06493 whole entry): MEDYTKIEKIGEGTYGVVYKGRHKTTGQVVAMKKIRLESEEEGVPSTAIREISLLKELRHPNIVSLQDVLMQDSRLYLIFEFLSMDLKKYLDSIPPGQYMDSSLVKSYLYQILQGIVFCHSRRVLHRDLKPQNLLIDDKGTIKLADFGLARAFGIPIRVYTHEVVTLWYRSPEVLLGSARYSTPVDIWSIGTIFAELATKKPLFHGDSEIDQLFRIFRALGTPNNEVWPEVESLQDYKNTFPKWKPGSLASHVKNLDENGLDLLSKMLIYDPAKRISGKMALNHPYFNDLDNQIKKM
Chain of CDK1/CCNB1 (P14635 whole entry partner): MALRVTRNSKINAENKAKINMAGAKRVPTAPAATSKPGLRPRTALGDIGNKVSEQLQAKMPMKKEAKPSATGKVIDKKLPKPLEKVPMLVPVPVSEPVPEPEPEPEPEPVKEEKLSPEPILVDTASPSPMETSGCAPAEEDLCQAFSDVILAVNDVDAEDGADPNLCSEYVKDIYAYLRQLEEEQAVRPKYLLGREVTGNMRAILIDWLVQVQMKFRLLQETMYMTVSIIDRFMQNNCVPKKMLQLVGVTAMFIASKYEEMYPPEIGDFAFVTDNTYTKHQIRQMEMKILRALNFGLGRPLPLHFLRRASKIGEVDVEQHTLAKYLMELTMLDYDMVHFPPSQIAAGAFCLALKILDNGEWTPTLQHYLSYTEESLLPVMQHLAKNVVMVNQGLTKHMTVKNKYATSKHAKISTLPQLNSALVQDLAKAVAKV
Chain of CDK4/CCND3 (P11802 whole entry): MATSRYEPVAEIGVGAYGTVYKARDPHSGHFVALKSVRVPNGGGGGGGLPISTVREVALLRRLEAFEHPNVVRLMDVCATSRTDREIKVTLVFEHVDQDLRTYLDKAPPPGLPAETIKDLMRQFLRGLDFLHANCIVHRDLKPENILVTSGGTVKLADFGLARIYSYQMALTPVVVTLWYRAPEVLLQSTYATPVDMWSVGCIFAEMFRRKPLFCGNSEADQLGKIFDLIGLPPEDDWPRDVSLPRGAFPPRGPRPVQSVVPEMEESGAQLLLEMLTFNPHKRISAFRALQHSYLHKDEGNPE
Chain of CDK4/CCND3 (P30281 whole entry partner): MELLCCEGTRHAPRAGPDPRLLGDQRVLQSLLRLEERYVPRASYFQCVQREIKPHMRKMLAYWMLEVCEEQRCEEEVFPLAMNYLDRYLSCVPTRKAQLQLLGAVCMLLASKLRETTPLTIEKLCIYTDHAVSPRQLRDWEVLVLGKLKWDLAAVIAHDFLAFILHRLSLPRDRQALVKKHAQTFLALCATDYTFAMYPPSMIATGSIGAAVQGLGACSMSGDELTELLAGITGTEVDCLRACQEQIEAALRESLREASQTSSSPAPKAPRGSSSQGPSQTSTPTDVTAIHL
Chain of CDK6/CCND1 (Q00534 whole entry): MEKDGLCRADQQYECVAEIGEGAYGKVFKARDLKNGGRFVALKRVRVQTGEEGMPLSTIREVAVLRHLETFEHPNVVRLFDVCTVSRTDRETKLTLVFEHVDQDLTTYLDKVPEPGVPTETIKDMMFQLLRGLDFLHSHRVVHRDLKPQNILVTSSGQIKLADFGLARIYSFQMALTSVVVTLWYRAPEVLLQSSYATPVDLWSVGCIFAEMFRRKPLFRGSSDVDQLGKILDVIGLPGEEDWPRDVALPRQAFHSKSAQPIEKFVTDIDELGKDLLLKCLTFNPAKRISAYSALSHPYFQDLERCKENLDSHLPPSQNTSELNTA
Chain of CDK6/CCND1 (P24385 whole entry partner): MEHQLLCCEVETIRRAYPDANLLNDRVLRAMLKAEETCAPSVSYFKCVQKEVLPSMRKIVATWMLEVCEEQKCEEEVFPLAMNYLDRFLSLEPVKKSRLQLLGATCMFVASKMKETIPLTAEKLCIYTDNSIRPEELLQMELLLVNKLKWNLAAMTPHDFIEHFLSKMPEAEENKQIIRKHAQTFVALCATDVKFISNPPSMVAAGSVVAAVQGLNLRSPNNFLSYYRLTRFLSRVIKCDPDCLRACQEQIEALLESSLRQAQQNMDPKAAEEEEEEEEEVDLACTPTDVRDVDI

Consider `CS(=O)(=O)c1ccc(Nc2cc3c(C4CCC(O)CC4)nccc3cn2)cc1` (racemic) [Ex 215, 4-(7-((4-(methylsulfonyl)phenyl)amino)-2,6-naphthyridin-1-yl)cyclohexan-1-ol], for which the IC50 on CDK6/CCND1 (setting [1]) was greater than 0.25 µM; on CDK2/CCNE1 (setting [2]), 0.025 to 0.25 µM; at CDK1/CCNB1 (setting [3]) it was greater than 0.25 µM; on CDK4/CCND3 (setting [4]), greater than 0.25 µM.

As for `O=S(=O)(CCO)c1ccc(Nc2cc3c(N4CCC(O)C4)nccc3cn2)cc1` (racemic) [Ex 221, 1-(7-((4-((2-hydroxyethyl)sulfonyl)phenyl)amino)-2,6-naphthyridin-1-yl)pyrrolidin-3-ol], the IC50 at CDK6/CCND1 (setting [1]) was greater than 0.25 µM; on CDK2/CCNE1 (setting [2]) it was 0.025 to 0.25 µM; at CDK1/CCNB1 (setting [3]) it was greater than 0.25 µM; on CDK4/CCND3 (setting [4]), greater than 0.25 µM.

As to `CN1CCC(c2nccc3cnc(Nc4ccc(S(C)(=O)=O)cc4)cc23)C1` (racemic) [Ex 229, 5-(1-methylpyrrolidin-3-yl)-N-(4-(methylsulfonyl)phenyl)-2,6-naphthyridin-3-amine], the IC50 on CDK6/CCND1 (setting [1]), on CDK2/CCNE1 (setting [5]), at CDK1/CCNB1 (setting [3]) and on CDK4/CCND3 (setting [4]) was greater than 0.25 µM each time.

With `CS(=O)(=O)c1ccc(Nc2cc3c(C4CCN(Cc5ccccc5)C4)nccc3cn2)cc1` (racemic) [Ex 230, 5-(1-benzylpyrrolidin-3-yl)-N-(4-(methylsulfonyl)phenyl)-2,6-naphthyridin-3-amine], the IC50 on CDK6/CCND1 (setting [1]), on CDK2/CCNE1 (setting [5]), at CDK1/CCNB1 (setting [3]) and at CDK4/CCND3 (setting [4]) was greater than 0.25 µM throughout.

For the compound `COc1ccc(CN2CCC(c3nccc4cnc(Nc5ccc(S(C)(=O)=O)cc5)cc34)C2)cc1` (racemic) [Ex 231, 5-(1-(4-methoxybenzyl)pyrrolidin-3-yl)-N-(4-(methylsulfonyl)phenyl)-2,6-naphthyridin-3-amine], the IC50 at CDK6/CCND1 (setting [1]), on CDK2/CCNE1 (setting [5]), on CDK1/CCNB1 (setting [3]) and on CDK4/CCND3 (setting [4]) was greater than 0.25 µM each time.

In the case of `CS(=O)(=O)c1ccc(Nc2cc3c(C4CCN(Cc5cccnc5)C4)nccc3cn2)cc1` (racemic) [Ex 232, N-(4-(methylsulfonyl)phenyl)-5-(1-(pyridin-3-ylmethyl)pyrrolidin-3-yl)-2,6-naphthyridin-3-amine], the IC50 on CDK6/CCND1 (setting [1]), on CDK2/CCNE1 (setting [5]), on CDK1/CCNB1 (setting [3]) and at CDK4/CCND3 (setting [4]) was greater than 0.25 µM each time.

With `CS(=O)(=O)c1ccc(Nc2cc3c(C4CCN(Cc5ccc(Cl)cc5)C4)nccc3cn2)cc1` (racemic) [Ex 233, 5-(1-(4-chlorobenzyl)pyrrolidin-3-yl)-N-(4-(methylsulfonyl)phenyl)-2,6-naphthyridin-3-amine], the IC50 on CDK6/CCND1 (setting [1]) was greater than 0.25 µM; at CDK2/CCNE1 (setting [2]), 0.025 to 0.25 µM; on CDK1/CCNB1 (setting [3]), greater than 0.25 µM; on CDK4/CCND3 (setting [4]) it was greater than 0.25 µM.

Take `CCC(=O)N1CCC(c2nccc3cnc(Nc4ccc(S(C)(=O)=O)cc4)cc23)C1` (racemic) [Ex 234, 1-(3-(7-((4-(methylsulfonyl)phenyl)amino)-2,6-naphthyridin-1-yl)pyrrolidin-1-yl)propan-1-one]: the IC50 at CDK6/CCND1 (setting [1]), at CDK2/CCNE1 (setting [5]), on CDK1/CCNB1 (setting [3]) and at CDK4/CCND3 (setting [4]) was greater than 0.25 µM in each case.

As for `CS(=O)(=O)c1ccc(Nc2cc3c(C4CCN(S(C)(=O)=O)C4)nccc3cn2)cc1` (racemic) [Ex 235, N-(4-(methylsulfonyl)phenyl)-5-(1-(methylsulfonyl)pyrrolidin-3-yl)-2,6-naphthyridin-3-amine], the IC50 at CDK6/CCND1 (setting [1]), on CDK2/CCNE1 (setting [5]), on CDK1/CCNB1 (setting [3]) and at CDK4/CCND3 (setting [4]) was greater than 0.25 µM in each case.

Regarding `CC(C)S(=O)(=O)N1CCC(c2nccc3cnc(Nc4ccc(S(C)(=O)=O)cc4)cc23)C1` (racemic) [Ex 236, 5-(1-(isopropylsulfonyl)pyrrolidin-3-yl)-N-(4-(methylsulfonyl)phenyl)-2,6-naphthyridin-3-amine], the IC50 at CDK6/CCND1 (setting [1]), on CDK2/CCNE1 (setting [5]), at CDK1/CCNB1 (setting [3]) and on CDK4/CCND3 (setting [4]) was greater than 0.25 µM throughout.

For the compound `C=CCS(=O)(=O)N1CCC(c2nccc3cnc(Nc4ccc(S(C)(=O)=O)cc4)cc23)C1` (racemic) [Ex 237, 5-(1-(allylsulfonyl)pyrrolidin-3-yl)-N-(4-(methylsulfonyl)phenyl)-2,6-naphthyridin-3-amine], the IC50 on CDK6/CCND1 (setting [1]), on CDK2/CCNE1 (setting [5]), at CDK1/CCNB1 (setting [3]) and on CDK4/CCND3 (setting [4]) was greater than 0.25 µM throughout.

On to `CS(=O)(=O)c1ccc(Nc2cc3c(C4CCN(S(=O)(=O)c5cccnc5)C4)nccc3cn2)cc1` (racemic) [Ex 238, N-(4-(methylsulfonyl)phenyl)-5-(1-(pyridin-3-ylsulfonyl)pyrrolidin-3-yl)-2,6-naphthyridin-3-amine], for which the IC50 on CDK6/CCND1 (setting [1]), on CDK2/CCNE1 (setting [5]), at CDK1/CCNB1 (setting [3]) and at CDK4/CCND3 (setting [4]) was greater than 0.25 µM in each case.

As to `CS(=O)(=O)c1ccc(Nc2cc3c(C4CCN(S(=O)(=O)C5CC5)C4)nccc3cn2)cc1` (racemic) [Ex 239, 5-(1-(cyclopropylsulfonyl)pyrrolidin-3-yl)-N-(4-(methylsulfonyl)phenyl)-2,6-naphthyridin-3-amine], the IC50 on CDK6/CCND1 (setting [1]), on CDK2/CCNE1 (setting [5]), on CDK1/CCNB1 (setting [3]) and at CDK4/CCND3 (setting [4]) was greater than 0.25 µM in each case.

`CS(=O)(=O)c1ccc(Nc2cc3c(C4=CC(O)CCC4)nccc3cn2)cc1` (racemic) [Ex 240, 3-(7-((4-(methylsulfonyl)phenyl)amino)-2,6-naphthyridin-1-yl)cyclohex-2-en-1-ol]: the IC50 at CDK6/CCND1 (setting [6]) was 0.025 to 0.25 µM; at CDK2/CCNE1 (setting [2]), 0.025 to 0.25 µM; at CDK1/CCNB1 (setting [3]) it was greater than 0.25 µM; on CDK4/CCND3 (setting [4]) it was greater than 0.25 µM.

Regarding `CS(=O)(=O)c1ccc(Nc2cc3c(C#CC4CCC(C#N)CC4)nccc3cn2)cc1` (racemic) [Ex 252, 4-((7-((4-(methylsulfonyl)phenyl)amino)-2,6-naphthyridin-1-yl)ethynyl)cyclohexane-1-carbonitrile], the IC50 on CDK6/CCND1 (setting [6]) was 0.025 to 0.25 µM; at CDK2/CCNE1 (<25 nM, read-out: CDK2/CCNE IC50 <25 nM), less than 0.025 µM; on CDK1/CCNB1 (setting [3]), greater than 0.25 µM; at CDK4/CCND3 (25-250 nM marked x, read-out: CDK4/CCND IC50 25-250 nM), 0.025 to 0.25 µM.

Take `N=S(=O)(c1ccc(Nc2cc3c(C#Cc4cccnc4N)nccc3cn2)cc1)C1CCC1` (racemic) [Ex 416, (4-((5-((2-aminopyridin-3-yl)ethynyl)-2,6-naphthyridin-3-yl)amino)phenyl)(cyclobutyl)(imino)-l6-sulfanone]: the IC50 at CDK6/CCND1 (x = IC50 >250 nM, read-out: CDK6/CCND IC50 (>250 nM column)) is greater than 0.25 µM; on CDK2/CCNE1 (x = IC50 25-250 nM, read-out: CDK2/CCNE IC50 (25-250 nM)) it was 0.025 to 0.25 µM; on CDK1/CCNB1 (x = IC50 >250 nM, read-out: CDK1/CCNB IC50 (>250 nM column)), greater than 0.25 µM; at CDK4/CCND3 (x = IC50 >250 nM, read-out: CDK4/CCND IC50 (>250 nM column)), greater than 0.25 µM.
